Source: ChEMBL document CHEMBL1138276, “Discovery of small-molecule inhibitors of tyrosinase” (Bioorg Med Chem Lett, 2007)

How the values were obtained:
[1] = (§1) Decrease of pigmentation in human MNT1 cells at 15 uM after 4 days; assay type: functional; conditions: MNT-1, 96 h
[2] = molecular target: T1, Tyrosinase (Agaricus bisporus) (UniProt O42713); assay: Inhibition of mushroom tyrosinase at 15 uM
T1 sequence (whole entry): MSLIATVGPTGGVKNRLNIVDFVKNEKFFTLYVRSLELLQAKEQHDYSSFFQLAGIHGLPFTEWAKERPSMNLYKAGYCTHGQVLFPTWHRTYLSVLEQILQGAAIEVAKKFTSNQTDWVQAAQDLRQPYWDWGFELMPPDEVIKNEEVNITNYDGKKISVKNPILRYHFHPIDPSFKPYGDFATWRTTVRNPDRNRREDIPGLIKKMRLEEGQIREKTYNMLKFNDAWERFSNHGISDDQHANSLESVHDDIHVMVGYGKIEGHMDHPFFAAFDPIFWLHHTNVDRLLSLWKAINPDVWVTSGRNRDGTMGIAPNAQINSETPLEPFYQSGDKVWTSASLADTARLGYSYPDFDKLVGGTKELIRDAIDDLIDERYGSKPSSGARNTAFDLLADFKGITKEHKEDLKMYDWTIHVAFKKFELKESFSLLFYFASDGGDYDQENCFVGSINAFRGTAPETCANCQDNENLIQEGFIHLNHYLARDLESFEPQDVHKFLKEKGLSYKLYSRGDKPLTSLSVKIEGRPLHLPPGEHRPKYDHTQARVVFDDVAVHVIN

[3] = molecular target: T1, Tyrosinase (Agaricus bisporus); assay: Inhibition of mushroom tyrosinase at 1.7 uM
Tyrosinase = molecular target: T2, Tyrosinase (Agaricus bisporus, UniProt O42713); assay: Inhibition of mushroom tyrosinase
T2 sequence (O42713 whole entry): T1 sequence (whole entry)

MNT1 = assay: as §1; assay type: functional

| Compound | inhibition [2] [%] | inhibition [3] [%] | IC50 (Tyrosinase) [nM] | inhibition at 15 µM [1] [%] | Activity (MNT1) |
| --- | --- | --- | --- | --- | --- |
| Cc1ccn2c(-c3csc(Nc4ccccn4)n3)c(C)nc2c1 |  |  |  | 48 |  |
| Cc1cccnc1Nc1nc(-c2ccc(O)cc2O)cs1 |  |  |  | 74 |  |
| O=C(O)c1cccc(Nc2nc(-c3ccc(O)cc3O)cs2)c1 |  |  |  | -6 |  |
| Cc1ccccc1NC(=O)CSC(N)=O | 66 | 47 |  | -15 |  |
| C/C(=N\NC(=S)Nc1cccc(C)c1)c1cccc(N)c1 | 52 | 44 |  | 38 |  |
| Oc1ccc(-c2csc(Nc3ccccn3)n2)c(O)c1 |  |  |  | 54 |  |
| Cc1ccc(-c2csc(Nc3cc(C)ccn3)n2)cc1 |  |  |  | 75 |  |

More lines, main results first:

| inhibition [2] [%] | inhibition [3] [%] | IC50 (Tyrosinase) [nM] | Compound | inhibition at 15 µM [1] [%] | Activity (MNT1) |
| --- | --- | --- | --- | --- | --- |
| 54 | 41 |  | S=c1[nH]c(-c2ccc3c(c2)OCO3)cn1-c1ccc(Oc2ccccc2)cc1 | 44 |  |
|  |  | 100 | Cc1ccnc(Nc2nc(-c3ccc(O)cc3O)cs2)c1 | 83 |  |
|  |  | 2000 | COc1ccc(-c2nc(-c3ccc(O)cc3O)cs2)c(OC)c1 | 91 |  |
| 46 | 36 |  | CC(=O)Nc1ccc(Nc2nc(-c3c(C)nc4ccc(C)cn34)cs2)cc1 |  | Toxic |
| 51 | 47 |  | CCCCCOc1ccc(NC2=C(N3CCCC3)C(=O)c3ccccc3C2=O)cc1 | 48 |  |
| 48 | 23 |  | O=S(=O)(c1ccc(NC(=S)Nc2ccccc2)cc1)N1CCCCC1 | 56 |  |
| 43 | 40 |  | COc1ccc2nc(SCC(=O)Nc3ccc4c(c3)OCCO4)[nH]c2c1 | 34 |  |
| 40 | 25 |  | C/C(=N\NC(=N)SC1CC(=O)N(c2ccc(Cl)cc2)C1=O)c1cccs1 (stereo not drawn) | 19 |  |
